Source: patent US11643405B2, “Compound for treatment or prevention of liver diseases” (JIANGSU ATOM BIOSCIENCE AND PHARMACEUTICAL CO., LTD., priority 2018, dated 2023)
Marks after values point to notes of the source that are not given here.

Experiments:
[1] = test system: zebrafish non-alcoholic fatty liver; assay: Fat reduction or elimination effect on thioacetamide-induced zebrafish non-alcoholic fatty liver (Oil Red O staining); type: in vivo; details: for The total optical density of liver fat: mean ± SE, n = 10; for inhibition at 100 µM / inhibition at 200 µM: Danio rerio, read-out: Inhibition rate of liver steatosis
Experimental: 40 mM stock solution of test compounds 4, 5, 6, 7, 46, 67, 78, 85, 92 and 101 were prepared with DMSO, and stored in a refrigerator at −20° C. The positive control compound S-adenosylmethionine (SAM) was purchased from Aladdin Reagent (Shanghai) Co., Ltd., with the batch number F1523051, which was prepared into a 50 mM stock solution with DMSO. The control compound silymarin was purchased from Shanghai Dibai Biotechnology Co., Ltd., with the batch number EE09, which was prepared into a 40 mM stock solution with DMSO. Thioacetamide was purchased from Sigma-Aldrich, with the batch number BCBV3031, which wasprepared into a 1 M stock solution with DMSO. Oil Red O was purchased from Sigma-Aldrich, with the batch number SLBP5248V. 4% paraformaldehyde was purchased from Dingguo Biotechnology Co., Ltd., with the batch number 773001800. Propylene glycol was purchased from Sinopharm Chemical Reagent Co., Ltd., with the batch number 20170615.
The melanin allele mutant translucent Albino line zebrafish was reproduced in natural paired mating. The fish age was 3 days after fertilization, with 30 fish per experimental group.
The above zebrafish were raised in fish farming water at 28° C. (water quality: 200 mg instant sea salt was added to 1 L of reverse osmosis water, conductivity was 480-510 μS/cm; pH was 6.9-7.2; hardness was 53.7-71.6 mg/L CaCOs), the experimental animal use license number was: SYXK (Zhejiang) 2012-0171. Feeding management met the requirements of international AAALAC certification.
Three days after fertilization, the normal melanin allele mutant translucent Albino strain of zebrafish was randomly selected and placed in a six well plate with 30 fish per well (i.e. each experimental group), and then thioacetamide with the final concentration of 7 mM was used to treat zebrafish for 72 hours to establish the non-alcoholic fatty liver model.
The zebrafish were transferred to a six-well plate, with 30 fish per well (i.e., each experimental group) randomly. Non-alcoholic fatty liver model in zebrafish were induced by thioacetamide. 40 mM test compounds 4, 5, 6, 7, 46, 67, 78, 85, 92 and 101 were quantitatively transferred to a six-well plate, and diluted with water to the corresponding concentration. Test compounds 4, 5, 6 and 7 were formulated into two dose groups with final concentration of 100 μM and 200 μM, respectively; test compound 46 was formulated into a dose group with final concentration of 200 μM; test compounds 67, 78, 85, 92 and 101 were formulated into dose groups with a final concentration of 100 μM; 50 mM positive control SAM was formulated with water to a dose group with final concentration of 50 μM, and a 40 mM positive control silymarin was formulated with water to two concentration dose groups with final concentration of 100 μM and 200 μM. A normal control group (zebrafish treated with fish farming water) and a model control group were set at the same time, and the total volume of each well was 3 mL. Except for the normal control group, the other experimental groups were treated with thioacetamide for 72 hours and stained with Oil Red O. After staining, 10 zebrafish were randomly selected from each experimental group and photographed under a dissecting microscope, NIS-Elements D 3.10 advanced image processing software was used to perform image analysis and collect data, the total optical density (S) of zebrafish liver fat was statistically analyzed, and for the inhibitory effect of each experimental group on liver steatosis of zebrafishwas evaluated by the following formula, the results of statistical analysis were expressed as mean±SE: Inhibition rate of liver steatosis (%)=[S(model control group)−S(test compound group)]/[S(model control group)−S(normal control group)]×100%
Statistical analysis was performed using analysis of variance and Dunnett's T-test, and p<0.05 indicated a significant difference. […]

NASH mice = assay: Efficacy on non-alcoholic steatohepatitis (NASH) mice fed high-fat feed; type: in vivo, C57BL/6 mice; details: for Liver coefficient (liver weight/body weight) / Liver weight: 28 days; for Liver weight: X ± SD
Experimental: The test compounds were 4 and 7, respectively; the positive control silymarin was purchased from Shanghai Dibai Biotechnology Co., Ltd., with the batch number HH06.
Low-dose group (35 mg/kg) solution preparation: the quantitative test compound was precisely weighed and a certain amount of normal saline was added to prepare the oral suspension solution with the concentration of 3.5 mg/mL. The administration volume was 10 mL/kg.
High-dose group (70 mg/kg) solution preparation: the quantitative test compound was precisely weighed and a certain amount of normal saline was added to prepare the oral suspension solution with the concentration of 7.0 mg/mL. The administration volume was 10 mL/kg.
High-fat feed: basic feed ingredients were corn, flour, imported fish meal, soybean meal, secondary meal, yeast meal, soybean oil, etc. The high-fat feed was prepared from 73.6% basic feed with 10% lard, 10% egg yolk powder, 5% sucrose, 1.2% cholesterol and 0.2% pig bile salt.
Source, species, strain: C57BL/6 mice, provided by Beijing Vital River Laboratory Animal Technology Co., Ltd. Nanjing Branch (experimental animal production license: SCXK (Su) 2016-0003); experimental animal use license: SYXK (Jun) 2012-0049; age: 6-8 weeks at the beginning of dosing; weight: 18-22 g; gender: half male and half female.
After 3 days of adaptive feeding with normal feed, the mice were randomly assigned according to body weight: 8 mice were fed with normal feed and set as normal control (NC); the rest of mice were fed with high-fat feed until the end of the experiment. The mice were weighed and recorded every 3 days. After feeding with high-fat diet for 56 days (8 weeks), blood samples were collected from the orbital vein of mice to detect the blood biochemical indexes to identify whether the modelling was successful.
After successful modeling, the mice in the high-fat feed group were randomly divided into 6 groups with 8 animals in each group, including model group, compound 4 low dose group, compound 4 high dose group, compound 7 low dose group, compound 7 high dose group and silymarin high-dose group. The mice in each group were administered intragastrically according to the animal's body weight every day for 28 consecutive days (4 weeks). At the same time, during the administration period, the mice in each administration group and model group continued to be fed with high-fat feed until the end of the experiment. The normal control group was administered the corresponding volume of normal saline.
On the last day of the experiment, the mice in each group were fasted for 8 hours, blood was taken from the orbit and the serum was separated and then stored at −20° C. After blood collection, the mice were sacrificed and the liver was quickly separated, weighed and stored in a refrigerator at −80° C. Serum samples and liver tissue samples were subjected to determinations of serum triglyceride (TG), serum total cholesterol (TC), serum high-density lipoprotein (HDL-C), serum low-density lipoprotein (LDL-C), serum alanine aminotransferase (ALT), serum aspartate aminotransferase (AST), serum tumor necrosis factor alpha (TNFα), liver triglycerides (TG), liver total cholesterol (TC), liver malondialdehyde (MDA), liver superoxide dismutase (SOD); in addition, some livers of mice in the blank control group, model group, compound 7 low-dose group and silymarin high-dose group were fixed in neutral formaldehyde fixed solution and then HE staining was performed to analyzed the pathological changes of liver tissue.

## COc1cc(OC)c2c(c1)OC(c1cc(O)c3c(c1)OC(c1ccc(O)c(OC)c1)C(CO)O3)C(O)C2 (stereo not drawn) [Compound 78, 7-{(3-hydroxy-5,7-dimethoxychroman-2-yl)-2-(4-hydroxy-3-methoxyphenyl)-3-hydroxymethyl-2,3-dihydrobenzo[b][1,4]dioxane}-5-ol]
[1]; 100 μM
  Therapeutic effect on non-alcoholic fatty liver of zebrafish (in words): significant therapeutic effects
  The total optical density of liver fat: 19665 ± 1330 Pixels
  inhibition at 100 µM: 62%

## COc1cc(C2Oc3cc(C4Oc5cc(F)cc(O)c5C(O)C4O)cc(O)c3OC2CO)ccc1O (stereo not drawn) [Compound 101, 7-fluoro-2-{8-hydroxy-3-(4-hydroxy-3-methoxyphenyl)-2-hydroxymethyl-2,3-dihydrobenzo[b][1,4]dioxan-6-yl}chroman-3,4,5-triol]
[1]; 100 μM
  Therapeutic effect on non-alcoholic fatty liver of zebrafish (in words): significant therapeutic effects
  The total optical density of liver fat: 18090 ± 837 Pixels
  inhibition at 100 µM: 93%

## C[S+](CC[C@H](N)C(=O)[O-])C[C@H]1O[C@@H](n2cnc3c(N)ncnc32)[C@H](O)[C@@H]1O (stereo partly drawn) [S-adenosylmethionine, reference compound]
[1]; 50 μM (SAM)
  Inhibition rate of liver steatosis: 89%
  The total optical density of liver fat: 18301 ± 783 Pixels

## COc1cc(C2Oc3cc(C4Oc5cc(O)cc(O)c5C(O)C4O)cc(O)c3OC2CO)ccc1O (stereo not drawn) [Compound 4, 2-{8-hydroxy-3-(4-hydroxy-3-methoxyphenyl)-2-hydroxymethyl-2,3-dihydrobenzo[b][1,4]dioxan-6-yl}chroman-3,4,5,7-tetraol]
[1]; 100 μM
  Therapeutic effect on non-alcoholic fatty liver of zebrafish (in words): significant therapeutic effects
  The total optical density of liver fat: 18598 ± 608 Pixels
  inhibition at 100 µM: 83%
[1]; 200 μM
  Therapeutic effect on zebrafish non-alcoholic fatty liver (in words): significant therapeutic effect
  The total optical density of liver fat: 17802 ± 487 Pixels
  inhibition at 200 µM: 99%
NASH mice; 35 mg/kg/day
  TG: 1.21 ± 0.05 mmol/L
NASH mice; 35 mg/kg/day intragastric
  Liver coefficient (liver weight/body weight): 4.43 ± 0.31 %
  Liver weight: 1.39 ± 0.03 g
NASH mice; 70 mg/kg/day
  TG: 1.18 ± 0.06 mmol/L
NASH mice; 70 mg/kg/day intragastric
  Liver coefficient (liver weight/body weight): 4.54 ± 0.33 %
  Liver weight: 1.43 ± 0.03 g
NASH mice; 35 and 70 mg/kg
  Therapeutic effect on non-alcoholic steatohepatitis in mice (in words): significant therapeutic effects
NASH mice; liver, 35 mg/kg/day
  MDA: 2.91 ± 0.42 nmol/mg
  SOD: 18.08 ± 3.90 U/mg
  TC: 1.51 ± 0.06 mmol/L
NASH mice; liver, 70 mg/kg/day
  MDA: 2.80 ± 0.21 nmol/mg
  SOD: 17.42 ± 4.16 U/mg
  TC: 1.51 ± 0.11 mmol/L
NASH mice; serum, 35 mg/kg/day
  ALT: 89.08 ± 18.93 U/L
  AST: 140.13 ± 13.93 U/L
  HDL-C: 0.95 ± 0.33 mmol/L
  LDL-C: 2.55 ± 0.50 mmol/L
  TC: 2.59 ± 0.32 mmol/L
  TG: 1.18 ± 0.02 mmol/L
  TNF-α: 414.20 ± 13.46 ng/L
NASH mice; serum, 70 mg/kg/day
  ALT: 98.29 ± 75.07 U/L
  AST: 120.04 ± 12.55 U/L
  HDL-C: 0.97 ± 0.37 mmol/L
  LDL-C: 2.13 ± 0.54 mmol/L
  TC: 2.58 ± 0.30 mmol/L
  TG: 1.24 ± 0.16 mmol/L
  TNF-α: 415.80 ± 13.54 ng/L

## COc1cc([C@H]2Oc3cc([C@H]4Oc5cc(O)cc(O)c5/C(=N/O)[C@@H]4O)ccc3O[C@@H]2CO)ccc1O [Compound 46, (2R,3S)-3,5,7-trihydroxy-2-{(2R,3R)-3-(4-hydroxy-3-methoxyphenyl)-2-hydroxymethyl-2,3-dihydrobenzo[b][1,4]dioxan-6-yl}chroman-4-one oxime]
[1]; 200 μM
  Therapeutic effect on zebrafish non-alcoholic fatty liver (in words): significant therapeutic effect
  The total optical density of liver fat: 19767 ± 814 Pixels
  inhibition at 200 µM: 60%

## COc1cc([C@H]2Oc3cc([C@H]4Oc5cc(O)cc(O)c5C(O)[C@@H]4O)ccc3O[C@@H]2CO)ccc1O (stereo partly drawn) [Compound 5, (2R,3S)-2-{(2R,3R)-3-(4-hydroxy-3-methoxyphenyl)-2-hydroxymethyl-2,3-dihydrobenzo[b][1,4]dioxan-6-yl}chroman-3,4,5,7-tetraol]
[1]; 100 μM
  Inhibition rate of liver steatosis: 85** %
  Therapeutic effect on non-alcoholic fatty liver of zebrafish (in words): significant therapeutic effects
  The total optical density of liver fat: 18496 ± 862 Pixels
  inhibition at 100 µM: 84%
[1]; 200 μM
  Therapeutic effect on zebrafish non-alcoholic fatty liver (in words): significant therapeutic effect
  The total optical density of liver fat: 18452 ± 795 Pixels
  inhibition at 200 µM: 86%

## COc1cc(OC)c2c(c1)OC(c1cc(O)c3c(c1)OC(c1ccc(O)c(OC)c1)C(CO)O3)C(O)C2O (stereo not drawn) [Compound 92, 2-{8-hydroxy-3-(4-hydroxy-3-methoxyphenyl)-2-hydroxymethyl-2,3-dihydrobenzo[b][1,4]dioxan-6-yl}-5,7-dimethoxychroman-3,4-diol]
[1]; 100 μM
  Therapeutic effect on non-alcoholic fatty liver of zebrafish (in words): significant therapeutic effects
  The total optical density of liver fat: 17836 ± 639 Pixels
  inhibition at 100 µM: 98%

## COc1cc([C@H]2Oc3cc([C@H]4Oc5cc(O)cc(O)c5C[C@@H]4O)ccc3O[C@@H]2CO)ccc1O [Compound 6, (2R,3S)-2-{(2R,3R)-3-(4-hydroxy-3-methoxyphenyl)-2-hydroxymethyl-2,3-dihydrobenzo[b][1,4]dioxan-6-yl}chroman-3,5,7-triol]
[1]; 100 μM
  Therapeutic effect on non-alcoholic fatty liver of zebrafish (in words): significant therapeutic effects
  The total optical density of liver fat: 19868 ± 556 Pixels
  inhibition at 100 µM: 58%
[1]; 200 μM
  Therapeutic effect on zebrafish non-alcoholic fatty liver (in words): significant therapeutic effect
  The total optical density of liver fat: 18157 ± 572 Pixels
  inhibition at 200 µM: 92%
